Assay results reported in patent publication US6407206B1, “Peptides, methods for assaying human pepsinogen I or human pepsin I and assay kits” (Ono Pharmaceutical Co., Ltd., priority 1996, dated 2002).
Square brackets hold non-standard residues; d marks the D form. Ends that are not written are not given here. * marks the point of attachment. Phe(4-NO2) = N[C@@H](Cc1ccc([N+](=O)[O-])cc1)C(=O)O; pNA = O=[N+]([O-])c1ccc(N*)cc1; Nle = CCCC[C@H](N)C(=O)O

How the values were obtained:
Type in all cases: biochemical
[1] = test system: human pepsin I; experiment: Digestion of the substrate by human pepsin I, assay by coloring p-NA (aminopeptidase M, absorbance at 405 nm); conditions: substrate 0.5 mM, 37° C.
Description: (§1) Formic acid buffer or glycine buffer (pH2.0˜3.0) containing each peptide (0.5 mM) prepared in Example 1˜5 (a)
(§2) An aqueous solution of human pepsin I or human pepsin II (0.01 mg/ml)
(§3) Aminopeptidase M (marketed from Beringer Manheim Co., derived from pig kidney) was dissolved into 1M Tris-HCl buffer (pH9.0) to be at concentration of 2U/I.
(§4) (2) Assay by Coloring p-NA
(§5) Enzyme solution I (0.1 ml) was added to Reagent (1.0 ml). After incubation of the mixture at 37° C. for 10 minutes, Enzyme solution II (0.05 ml) was added to the mixture solution (0.25 ml). After incubation of the mixture at 37° C. for 5 minutes, the increase in absorbance at 405 nm (Es) was determined. On the other hand, reagent blank value (E(BL)) was determined by the same procedure as above using purified water. According to the following, the increase in absorbance (E) was calculated.

[2] = molecular target: T1, human pepsin II (Homo sapiens, UniProt P20142); experiment: Digestion of the substrate by human pepsin II, assay by HPLC (released H-Y-pNA); conditions: pepsin 909 ng/ml, substrate 0.5 mM, 37° C.
T1 sequence (P20142 60-388): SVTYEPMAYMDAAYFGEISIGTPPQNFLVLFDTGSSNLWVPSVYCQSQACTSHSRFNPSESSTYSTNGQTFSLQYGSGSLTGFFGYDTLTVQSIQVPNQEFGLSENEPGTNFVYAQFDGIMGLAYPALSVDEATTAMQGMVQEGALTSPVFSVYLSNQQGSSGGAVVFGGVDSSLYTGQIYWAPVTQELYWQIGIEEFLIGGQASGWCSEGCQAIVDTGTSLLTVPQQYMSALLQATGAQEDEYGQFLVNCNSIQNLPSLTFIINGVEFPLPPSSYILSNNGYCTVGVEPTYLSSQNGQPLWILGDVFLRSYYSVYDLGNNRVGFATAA
Description: as §1, §2
(§6) Enzyme solution I (0.1 ml) was added to Reagent (1.0 ml). After incubation of the mixture at 37° C. for 10, 30, 60 minutes, the mixture solution (0.3 ml) was collected. To the collected solution, 2N—NaOH (0.025 ml) was added to terminate the reaction. After addition of 2N—HCl (0.025 ml) to the mixture, protein was removed by the ultrafiltration. The assaying H-Y-pNA (Nle-pNA: Example 1 and 2; Tyr-pNA: Example 3; Phe-pNA: Example 4; Phe(NO2)-pNA: Example 5) which was released after digesting by human pepsin in the obtained solution was carried out by HPLC using C18 column.
(§7) The ratio of pepsin I/pepsin II was calculated according to the result from assay by HPLC. Such assay is carried out to confirm that a substrate was digested by pepsin I or pepsin II correctly and that H-Y-pNA was released.

[3] = test system: human pepsin I; experiment: Digestion of the substrate by human pepsin I, assay by HPLC (released H-Y-pNA); conditions: for ratio of relative activity of pepsin I/pepsin II: calculated according to the result from assay by HPLC; for Activitry of pepsin, Determination by HPLC, pepsin I: pepsin 909 ng/ml, substrate 0.5 mM, 37° C.
Description: as §1, §2, §6, §7

[4] = molecular target: T1, human pepsin II; experiment: Digestion of the substrate by human pepsin II, assay by coloring p-NA (aminopeptidase M, absorbance at 405 nm); conditions: substrate 0.5 mM, 37° C.
Description: as §1, §2, §3, §4, §5

[5] = reaction pH 3.0, pepsin 909 ng/ml
[6] = reaction pH 2.0, pepsin 909 ng/ml

Substance | Activitry of pepsin, Determination by p-NA, pepsin I [1, 5] | Activitry of pepsin, Determination by HPLC, pepsin II ([2]; reaction pH 3.0) [μM/min · 909 ngEnz/ml] | Activitry of pepsin, Determination by p-NA, pepsin II [4, 5] | Activitry of pepsin, Determination by p-NA, pepsin I [1, 6] | Activitry of pepsin, Determination by HPLC, pepsin II ([2]; reaction pH 2.0) [μM/min · 909 ngEnz/ml] | Activitry of pepsin, Determination by p-NA, pepsin II [4, 6] | ratio of relative activity of pepsin I/pepsin II ([3]; reaction pH 3.0) | Activitry of pepsin, Determination by HPLC, pepsin I ([3]; reaction pH 3.0) [μM/min · 909 ngEnz/ml] | ratio of relative activity of pepsin I/pepsin II ([3]; reaction pH 2.0) | Activitry of pepsin, Determination by HPLC, pepsin I ([3]; reaction pH 2.0) [μM/min · 909 ngEnz/ml]
LysProIleGluPhePhe-pNA -2CF3COOH (KPIEFF-pNA; also: trifluoroacetate salt (2CF3COOH)) [Example 4] | 908.3 mABS/10 min · 909 ngEnz/ml | 0.16 | 13.3 mABS/10 min · 909 ngEnz/ml |  |  |  | 68.1 | 10.9 |  | 
LysProIleGluPheTyr-pNA.2CF3COOH (KPIEFY-pNA; also: TFA salt (2CF3COOH)) [Example 3] |  |  |  | 1425.0 mABS/10 min · 909 ngEnz/ml | 0.37 | 30.8 mABS/10 min · 909 ngEnz/ml |  |  | 46.2 | 17.1
N^α-Ac-LysProIleGluPheNle-pNA.CF3COOH (Ac-KPIEF[Nle]-pNA; also: TFA salt) [Example 1] |  |  |  | 4391.7 mABS/10 min · 909 ngEnz/ml | 0.55 | 45.8 mABS/10 min · 909 ngEnz/ml |  |  | 95.8 | 52.7

The next lines start with results.

Activitry of pepsin, Determination by p-NA, pepsin I [1, 5] | Activitry of pepsin, Determination by HPLC, pepsin II ([2]; reaction pH 3.0) [μM/min · 909 ngEnz/ml] | Activitry of pepsin, Determination by p-NA, pepsin II [4, 5] | Activitry of pepsin, Determination by p-NA, pepsin I [1, 6] | Activitry of pepsin, Determination by HPLC, pepsin II ([2]; reaction pH 2.0) [μM/min · 909 ngEnz/ml] | Activitry of pepsin, Determination by p-NA, pepsin II [4, 6] | Substance | ratio of relative activity of pepsin I/pepsin II ([3]; reaction pH 3.0) | Activitry of pepsin, Determination by HPLC, pepsin I ([3]; reaction pH 3.0) [μM/min · 909 ngEnz/ml] | ratio of relative activity of pepsin I/pepsin II ([3]; reaction pH 2.0) | Activitry of pepsin, Determination by HPLC, pepsin I ([3]; reaction pH 2.0) [μM/min · 909 ngEnz/ml]
716.7 mABS/10 min · 909 ngEnz/ml | 0.37 | 30.8 mABS/10 min · 909 ngEnz/ml |  |  |  | LysProIleGluPheNle-pNA.2CF3COOH (KPIEF[Nle]-pNA; also: trifluoroacetate salt (2CF3COOH)) [Example 2] | 23.2 | 8.6 |  | 
100.0 mABS/10 min · 909 ngEnz/ml | 0.07 | 5.8 mABS/10 min · 909 ngEnz/ml |  |  |  | LysProIleGluPhePhe(NO2)-pNA.2CF3COOH (KPIEF[Phe(4-NO2)]-pNA; also: 2 TFA salt) [Example 5] | 17.1 | 1.2 |  | 
 |  |  | 3036.2 mABS/10 min · 909 ngEnz/ml | 0.69 | 57.3 mABS/10 min · 909 ngEnz/ml | N^α-AcLysProIleGlu-Phe(NO2)-Nle-pNA.CF3COOH (Ac-KPIE[Phe(4-NO2)][Nle]-pNA; also: TFA salt) [Example 5(a)] |  |  | 52.8 | 36.4
